Measured values published in US10646440B2, “Sanguisorbigenin polymer micelle and preparative methods thereof” (SICHUAN INLU WEITE PHARMACEUTICAL TECHNOLOGY CO., LTD., priority 2016, dated 2020).

Test system: KM-mice given cyclophosphamide (bone marrow suppression)
Assay: Pharmacodynamic experiment: cyclophosphamide-induced bone marrow suppression, peripheral blood counts
Type: in vivo
[1] = cyclophosphamide 120 mg/kg i.p. day 1, 2.5 mg/kg for 6 days, blood on day 7, mean ± s

CC1CC[C@]2(C(=O)O)CC[C@]3(C)C(=CCC4[C@@]5(C)CCC(O)C(C)(C)C5CC[C@]43C)C2[C@]1(C)O (stereo partly drawn) [Sanguisorbigenin, 3β,19β-dihydroxyurs-12-en-28-oic acid]
numbers of NEUT and HGB in peripheral blood compared with model group (2.5 mg/kg, P<0.05): did not show significant difference
numbers of WBC, RBC, and PLT in peripheral blood compared with model group (2.5 mg/kg, P<0.05): did not show significant difference
HGB in peripheral blood [1]: 45.47 ± 8.39 ^ g/L
NEUT in peripheral blood [1]: 2.56 ± 0.13 ×10^9
PLT in peripheral blood [1]: 231.16 ± 15.27 ×10^9
RBC in peripheral blood [1]: 3.15 ± 0.19 ×10^12
WBC in peripheral blood [1]: 2.79 ± 0.26 ×10^9
